Reference: patent publication US20240116951A1, “HETEROCYCLIC COMPOUNDS AND USES THEREOF” (Kumquat Biosciences Inc., priority 2022, published 2024)

How the values were obtained:
Assay type in all cases: binding
KRAS G12D = target: T1, KRAS G12D (Homo sapiens, UniProt P01116, G12D); test: HTRF assay of K-Ras G12D interaction with SOS1 (PPI-HTRF); settings: HTRF, 5 nM KRAS G12D; read-out: PPI-HTRF-5 nM KRAS G12D
T1 construct: made in house; host or cells: E. coli, e.g. BL21 (DE3)
Method in brief: (§1)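 Read-out: HTRF ratio 665/620 nm (ex 337 nm) after ~10 min or longer. Donor anti-GST-Eu(K) on GST-K-Ras and acceptor anti-6His-XL665 on His-hSOS1, in HEPES pH 7.4 buffer with DTT, BSA and Igepal. Duplicate dilution series from 10 μM down to 0.01 μM gave IC50 values.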

KRAS G12S = target: T2, KRAS G12S (Homo sapiens, UniProt P01116, G12S); test: HTRF assay of K-Ras G12S interaction with SOS1 (PPI-HTRF); settings: 5 nM KRAS G12S, read-out: PPI-HTRF-5 nM KRAS G12S
T2 construct: made in house; host or cells: E. coli, e.g. BL21 (DE3)
T2 sequence (P01116 1-188 isoform P01116-2 G12S): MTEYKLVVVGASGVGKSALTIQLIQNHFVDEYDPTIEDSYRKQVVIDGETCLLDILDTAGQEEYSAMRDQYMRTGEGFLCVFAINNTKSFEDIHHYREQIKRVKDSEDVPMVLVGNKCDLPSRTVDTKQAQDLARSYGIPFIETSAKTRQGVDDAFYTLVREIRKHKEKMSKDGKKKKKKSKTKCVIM
Method in brief: as §1

KRAS WT = target: T3, KRAS WT (Homo sapiens, UniProt P01116); test: HTRF assay of wildtype K-Ras interaction with SOS1 (PPI-HTRF); settings: HTRF, 5 nM KRAS WT; read-out: PPI-HTRF-5 nM KRAS WT
T3 construct: made in house; host or cells: E. coli, e.g. BL21 (DE3)
T3 sequence (P01116 1-188 isoform P01116-2): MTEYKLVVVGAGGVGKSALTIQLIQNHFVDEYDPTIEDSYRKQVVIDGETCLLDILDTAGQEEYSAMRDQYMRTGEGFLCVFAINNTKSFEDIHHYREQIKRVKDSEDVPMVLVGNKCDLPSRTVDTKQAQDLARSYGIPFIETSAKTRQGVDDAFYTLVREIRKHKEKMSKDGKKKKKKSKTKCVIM
Method in brief: as §1

T1 sequence (P01116 1-188 isoform P01116-2 G12D): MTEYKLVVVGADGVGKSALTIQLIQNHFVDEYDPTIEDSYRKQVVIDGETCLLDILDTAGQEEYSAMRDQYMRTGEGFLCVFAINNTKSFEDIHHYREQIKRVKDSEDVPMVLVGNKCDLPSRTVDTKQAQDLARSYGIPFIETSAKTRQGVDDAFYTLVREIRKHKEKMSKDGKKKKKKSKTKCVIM

| IC50 (KRAS G12D) [µM] | IC50 (KRAS G12S) [µM] | IC50 (KRAS WT) [µM] | SMILES |
| --- | --- | --- | --- |
| < 5 | < 5 | < 5 | Nc1nc2c(-c3c(Cl)cc4c(N5CCC6(CC5)CCN6C(=O)n5cncn5)nc(OC[C@@]56CCCN5C[C@H](F)C6)nc4c3F)ccc(F)c2s1 [Compound 269, (7-(7-(2-amino-7-fluorobenzo[d]thiazol-4-yl)-6-chloro-8-fluoro-2-(((2R,7aS)-2-fluorotetrahydro-1H-pyrrolizin-7a(5H)-yl)methoxy)quinazolin-4-yl)-1,7-diazaspiro[3.5]nonan-1-yl)(1H-1,2,4-triazol-1-yl)methanone] |
| < 5 | < 5 | < 5 | N#Cc1c(N)sc2c(F)ccc(-c3c(Cl)cc4c(N5CCC6(CCN6C(=O)n6ccnn6)C5)nc(OC[C@@]56CCCN5C[C@H](F)C6)nc4c3F)c12 (stereo partly drawn) [Compound 248, 4-(4-(1-(1H-1,2,3-triazole-1-carbonyl)-1,6-diazaspiro[3.4]octan-6-yl)-6-chloro-8-fluoro-2-(((2R,7aS)-2-fluorotetrahydro-1H-pyrrolizin-7a(5H)-yl)methoxy)quinazolin-7-yl)-2-amino-7-fluorobenzo[b]thiophene-3-carbonitrile] |
| < 5 | < 5 | < 5 | COCC(=O)N1CCC12CCN(c1nc(O[C@@H](C)[C@@H]3CCCN3C)nc3c(F)c(-c4ccc(F)c5sc(N)c(C#N)c45)c(Cl)cc13)C2 (stereo partly drawn) [Compound 254, 2-amino-4-(6-chloro-8-fluoro-4-(1-(2-methoxyacetyl)-1,6-diazaspiro[3.4]octan-6-yl)-2-((S)-1-((S)-1-methylpyrrolidin-2-yl)ethoxy)quinazolin-7-yl)-7-fluorobenzo[b]thiophene-3-carbonitrile] |
| < 5 | < 5 | < 5 | N#Cc1c(N)sc2c(F)ccc(-c3c(Cl)cc4c(N5CCCC6(CCCN6)C5)nc(OC[C@@]56CCCN5C[C@H](F)C6)nc4c3F)c12 (stereo partly drawn) [Compound 218, 2-amino-4-(6-chloro-8-fluoro-2-(((2R,7aS)-2-fluorotetrahydro-1H-pyrrolizin-7a(5H)-yl)methoxy)-4-(1,7-diazaspiro[4.5]decan-7-yl)quinazolin-7-yl)-7-fluorobenzo[b]thiophene-3-carbonitrile] |
| < 5 | < 5 | < 5 | Nc1nc2c(-c3c(Cl)cc4c(N5CC6(CCN6)C5)nc(OC[C@@]56CCCN5C[C@H](F)C6)nc4c3F)ccc(F)c2s1 [Compound 259, 4-(6-chloro-8-fluoro-2-(((2R,7aS)-2-fluorotetrahydro-1H-pyrrolizin-7a(5H)-yl)methoxy)-4-(1,6-diazaspiro[3.3]heptan-6-yl)quinazolin-7-yl)-7-fluorobenzo[d]thiazol-2-amine] |
| < 5 | < 5 | < 5 | CN1CCC[C@H]1COc1nc(N2CCC3(CCN3C(=O)n3cncn3)C2)c2cc(Cl)c(-c3ccc(F)c4sc(N)c(C#N)c34)c(F)c2n1 (stereo partly drawn) [Compound 319, 4-(4-(1-(1H-1,2,4-triazole-1-carbonyl)-1,6-diazaspiro[3.4]octan-6-yl)-6-chloro-8-fluoro-2-(((S)-1-methylpyrrolidin-2-yl)methoxy)quinazolin-7-yl)-2-amino-7-fluorobenzo[b]thiophene-3-carbonitrile] |
| < 5 | < 5 | < 5 | CC(C)=C(C#N)C(=O)N1CCC12CCN(c1nc(OC[C@@]34CCCN3C[C@H](F)C4)nc3c(F)c(-c4ccc(F)c5sc(N)c(C#N)c45)c(Cl)cc13)C2 (stereo partly drawn) [Compound 297, 2-amino-4-(6-chloro-4-(1-(2-cyano-3-methylbut-2-enoyl)-1,6-diazaspiro[3.4]octan-6-yl)-8-fluoro-2-(((2R,7aS)-2-fluorotetrahydro-1H-pyrrolizin-7a(5H)-yl)methoxy)quinazolin-7-yl)-7-fluorobenzo[b]thiophene-3-carbonitrile] |
| < 5 | < 5 | < 5 | N#CCC1CN(c2nc(OC[C@@]34CCCN3C[C@H](F)C4)nc3c(F)c(-c4ccc(F)c5sc(N)c(C#N)c45)c(Cl)cc23)CC12CCN2C(=O)n1cnc(C(F)F)n1 (stereo partly drawn) [Compound 329, 2-amino-4-(6-chloro-4-(8-(cyanomethyl)-1-(3-(difluoromethyl)-1H-1,2,4-triazole-1-carbonyl)-1,6-diazaspiro[3.4]octan-6-yl)-8-fluoro-2-(((2R,7aS)-2-fluorotetrahydro-1H-pyrrolizin-7a(5H)-yl)methoxy)quinazolin-7-yl)-7-fluorobenzo[b]thiophene-3-carbonitrile] |
| < 5 | < 5 | < 5 | N#Cc1c(N)sc2c(F)ccc(-c3c(Cl)cc4c(N5CCCCC6(CCN6C(=O)n6cncn6)C5)nc(OC[C@@]56CCCN5C[C@H](F)C6)nc4c3F)c12 (stereo partly drawn) [Compound 350] |
| < 5 | < 5 | < 5 | N#Cc1c(N)sc2c(F)ccc(-c3c(Cl)cc4c(N5CCC6(CCCN6C(=O)n6cncn6)C5)nc(OC[C@@]56CCCN5C[C@H](F)C6)nc4c3F)c12 (stereo partly drawn) [Compound 261, 4-(4-(1-(1H-1,2,4-triazole-1-carbonyl)-1,7-diazaspiro[4.4]nonan-7-yl)-6-chloro-8-fluoro-2-(((2R,7aS)-2-fluorotetrahydro-1H-pyrrolizin-7a(5H)-yl)methoxy)quinazolin-7-yl)-2-amino-7-fluorobenzo[b]thiophene-3-carbonitrile] |
| < 5 | < 5 | < 5 | C[C@H](Oc1nc(N2CC[C@@]3(CCN3C(=O)n3cncn3)C2)c2cc(Cl)c(-c3ccc(F)c4sc(N)c(C#N)c34)c(F)c2n1)[C@@H]1CCCN1C (single isomer, unassigned) [Compound 299] |
| < 5 | < 5 | < 5 | Cc1nc(C)n(C(=O)N2CC[C@@]23CCN(c2nc(OC[C@@]45CCCN4C[C@H](F)C5)nc4c(F)c(-c5ccc(F)c6sc(N)c(C#N)c56)c(Cl)cc24)C3)n1 [Compound 307, 2-amino-4-(6-chloro-4-((R)-1-(3,5-dimethyl-1H-1,2,4-triazole-1-carbonyl)-1,6-diazaspiro[3.4]octan-6-yl)-8-fluoro-2-(((2R,7aS)-2-fluorotetrahydro-1H-pyrrolizin-7a(5H)-yl)methoxy)quinazolin-7-yl)-7-fluorobenzo[b]thiophene-3-carbonitrile] |
| < 5 | < 5 | < 5 | C[C@H](Oc1nc(N2CCC3(CCN3C(=O)n3cncn3)C2)c2cc(Cl)c(-c3ccc(F)c4sc(N)c(C#N)c34)c(F)c2n1)[C@@H]1CCCN1C (stereo partly drawn) [Compound 207, 4-(4-(1-(1H-1,2,4-triazole-1-carbonyl)-1,6-diazaspiro[3.4]octan-6-yl)-6-chloro-8-fluoro-2-((S)-1-((S)-1-methylpyrrolidin-2-yl)ethoxy)quinazolin-7-yl)-2-amino-7-fluorobenzo[b]thiophene-3-carbonitrile] |

| SMILES | IC50 (KRAS G12D) [µM] | IC50 (KRAS G12S) [µM] | IC50 (KRAS WT) [µM] |
| --- | --- | --- | --- |
| N#Cc1c(N)sc2c(F)ccc(-c3c(Cl)cc4c(N5CCC6(CCN6C(=O)[C@@H]6N[C@H]6C6CC6)C5)nc(OC[C@@]56CCCN5C[C@H](F)C6)nc4c3F)c12 (stereo partly drawn) [Compound 296, 2-amino-4-(6-chloro-4-(1-((2R,3S)-3-cyclopropylaziridine-2-carbonyl)-1,6-diazaspiro[3.4]octan-6-yl)-8-fluoro-2-(((2R,7aS)-2-fluorotetrahydro-1H-pyrrolizin-7a(5H)-yl)methoxy)quinazolin-7-yl)-7-fluorobenzo[b]thiophene-3-carbonitrile] | < 5 | < 5 | < 5 |
